Converted amounts (≈) assume the structure as drawn. Where two headings read alike, the source gives them in different places.
How the values were obtained:
[1] = tested on: Enterobacter aerogenes (IFO-3320); test: antibacterial activity, minimum growth inhibitory concentration method (MIC method); type: cell-based; details: Klebsiella aerogenes, read-out: Minimum growth inhibitory concentration (MIC)
Description: (§1) The antibacterial activity was tested by the minimum growth inhibitory concentration method (MIC method).
(§2) A commercially available heart infusion agar medium (to be abbreviated HIA medium) was used as an assay medium, and a commercially available trypto-soy bouillon medium (to be abbreviated TSB) was used as a medium for the growth of test bacterial strains.
(§3) The test compound was diluted with the melted HIA medium to 100 μg/ml as a maximum concentration, and then serially diluted doubly. The dilutions were poured into sterilized Petri dishes respectively and allowed to cool and solidify to prepare plates containing the test compound.
(§4) As a control, carbenicillin sodium (CB-PC) was used.
(§5) The test strain was cultivated in the TBS medium at 37° C. for 18 hours, and the culture broth was diluted with a freshly prepared TBS medium to 50 to 500 times, and one platinum loopful of the dilution was inoculated in each of the plates containing the test compound. The plate was incubated at 37° C. for 18 hours. The state of growth of the strain on the plate was observed, and the minimum growth inhibitory concentration (MIC) of the compound was determined.

Proteus vulgaris (OX-19) = test: as above; type: cell-based; details: HIA medium, 37° C., 18 hours
Description: as §1, §2, §3, §4, §5

[2] = tested on: Serratia marcescens (S-33); test: as above; type: cell-based; details: HIA medium, 37° C., 18 hours
Description: as §1, §2, §3, §4, §5

[3] = tested on: Pseudomonas aeruginosa (IFO-3901); test: as above; type: cell-based; details: IFO3901, HIA medium, 37° C., 18 hours
Description: as §1, §2, §3, §4, §5

[4] = tested on: Staphylococcus aureus (Y-8); test: as above; type: cell-based; details: HIA medium, 37° C., 18 hours
Description: as §1, §2, §3, §4, §5

[5] = tested on: Pseudomonas aeruginosa (395); test: as above; type: cell-based; details: HIA medium, 37° C., 18 hours
Description: as §1, §2, §3, §4, §5

Shigella flexneri (K-A) = test: as above; type: cell-based; details: HIA medium, 37° C., 18 hours
Description: as §1, §2, §3, §4, §5

Escherichia coli (K-12) = test: as above; type: cell-based; details: HIA medium, 37° C., 18 hours
Description: as §1, §2, §3, §4, §5

[6] = tested on: Klebsiella pneumoniae (ATCC 10031); test: as above; type: cell-based; details: ATCC10031, HIA medium, 37° C., 18 hours
Description: as §1, §2, §3, §4, §5

[7] = tested on: Salmonellaenteritidis (KB-21); test: as above; type: cell-based; details: read-out: Minimum growth inhibitory concentration (MIC)
Description: as §1, §2, §3, §4, §5

[8] = tested on: Staphylococcus aureus (FDA 209P); test: as above; type: cell-based; details: FDA209P, read-out: Minimum growth inhibitory concentration (MIC)
Description: as §1, §2, §3, §4, §5

Pseudomonas aeruginosa = details: in words, background literature; cited from earlier work
[9] = IFO3320, Enterobacter aerogenes (IFO-3320), HIA medium, 37° C., 18 hours
[10] = Salmonellaenteritidis (KB-21), HIA medium, 37° C., 18 hours

Row | Compound | MIC [1, 9] | MIC (Proteus vulgaris (OX-19)) | MIC [2] | MIC [3] | MIC [4] | MIC [5] | MIC (Shigella flexneri (K-A)) | MIC (Escherichia coli (K-12)) | MIC [6] | MIC [7, 10] | MIC ([8]; Staphylococcus aureus (FDA 209P), HIA medium, 37° C., 18 hours) | activity on Pseudomonas aeruginosa (Pseudomonas aeruginosa) | effect on Pseudomonas aeruginosa-induced infections of difficultly-curable nature (Pseudomonas aeruginosa) | MIC ([1]; IFO3320, 18 h) | MIC ([7]; 18 h) | MIC ([8]; Staphylococcus aureus, 18 h)
1 | CCn1cc(C(=O)N[C@@H](C(=O)N[C@@H]2C(=O)N3[C@@H]2SC(C)(C)[C@@H]3C(=O)O)c2ccccc2)c(=O)c2c1CCCC2=O [Synthesis Example 2, 6-[D-(-)-α-(1-ethyl-4,5-dioxo-1,4,5,6,7,8-hexahydroquinoline-3-carboxamodo)phenylacetamido]-penicillanic acid] | 1.56 µg/mL (≈ 2.75 µM) | 3.13 µg/mL (≈ 5.52 µM) | 3.13 µg/mL (≈ 5.52 µM) | 6.25 µg/mL (≈ 11 µM) | 6.25 µg/mL (≈ 11 µM) | 3.13 µg/mL (≈ 5.52 µM) | 0.78 µg/mL (≈ 1.38 µM) | 3.13 µg/mL (≈ 5.52 µM) | 25 µg/mL (≈ 44.1 µM) | 0.78 µg/mL (≈ 1.38 µM) | 1.56 µg/mL (≈ 2.75 µM) | – | – | – | – | –
2 | CC1(C)S[C@@H]2[C@H](NC(=O)C(C(=O)O)c3ccccc3)C(=O)N2[C@H]1C(=O)O (stereo partly drawn) [CB--PC, disodium-α-carboxybenzyl penicillin, reference compound] | – | 3.13 µg/mL | 3.13 µg/mL | 100 µg/mL | 6.25 µg/mL | 25 µg/mL | 1.56 µg/mL | 6.25 µg/mL | > 100 µg/mL | – | – | low activity | ineffective | 1.56 µg/mL | 1.56 µg/mL | 1.56 µg/mL
3 | CC1(C)CC(=O)c2c([nH]cc(C(=O)N[C@@H](C(=O)N[C@@H]3C(=O)N4[C@@H]3SC(C)(C)[C@@H]4C(=O)O)c3ccccc3)c2=O)C1 [Synthesis Example 1, 6-[D-(-)-α-(7,7-dimethyl-4,5-dioxo-1,4,5,6,7,8-hexahydroquinoline-3-carboxamido)phenylacetamido]-penicillanic acid] | 0.78 µg/mL (≈ 1.38 µM) | 1.56 µg/mL (≈ 2.75 µM) | 3.13 µg/mL (≈ 5.52 µM) | 6.25 µg/mL (≈ 11 µM) | 6.25 µg/mL (≈ 11 µM) | 1.56 µg/mL (≈ 2.75 µM) | 0.39 µg/mL (≈ 0.688 µM) | 0.78 µg/mL (≈ 1.38 µM) | 12.5 µg/mL (≈ 22.1 µM) | 0.39 µg/mL (≈ 0.688 µM) | – | – | – | – | – | 1.56 µg/mL (≈ 2.75 µM)
